Experiments:
Assay type in all cases: functional
[1] = Growth inhibition of human UACC62 cells at 10 uM after 48 hrs by sulforhodamine B assay; details: UACC-62, 48 h, values are per cent of control
SK-MEL-5 = test: Growth inhibition of human SK-MEL-5 cells at 10 uM after 48 hrs by sulforhodamine B assay; details: SK-MEL-5, 48 h, values are per cent of control
NCI-H226 = test: Growth inhibition of human NCI-H226 cells at 10 uM after 48 hrs by sulforhodamine B assay; details: NCI-H226, 48 h, values are per cent of control
[2] = Growth inhibition of human HCC2998 cells at 10 uM after 48 hrs by sulforhodamine B assay; details: HCC 2998, 48 h, values are per cent of control
[3] = Growth inhibition of human Caki1 cells at 10 uM after 48 hrs by sulforhodamine B assay; details: CAKI-1, 48 h, values are per cent of control
U-251 = test: Growth inhibition of human U251 cells at 10 uM after 48 hrs by sulforhodamine B assay; details: U-251, 48 h, values are per cent of control
[4] = Growth inhibition of human HOP62 cells at 10 uM after 48 hrs by sulforhodamine B assay; details: HOP-62, 48 h, values are per cent of control
ACHN = test: Growth inhibition of human ACHN cells at 10 uM after 48 hrs by sulforhodamine B assay; details: values are per cent of control
[5] = Growth inhibition of human DU145 cells at 10 uM after 48 hrs by sulforhodamine B assay; details: DU-145, 48 h, values are per cent of control
[6] = Growth inhibition of human HCT15 cells at 10 uM after 48 hrs by sulforhodamine B assay; details: HCT-15, 48 h, values are per cent of control
NCI-H23 = test: Growth inhibition of human NCI-H23 cells at 10 uM after 48 hrs by sulforhodamine B assay; details: NCI-H23, 48 h, values are per cent of control
MDA-MB-468 = test: Growth inhibition of human MDA-MB-468 cells at 10 uM after 48 hrs by sulforhodamine B assay; details: MDA-MB-468, 48 h, values are per cent of control
[7] = Growth inhibition of human Hs 578T cells at 10 uM after 48 hrs by sulforhodamine B assay; details: values are per cent of control
SN12C = test: Growth inhibition of human SN12C cells at 10 uM after 48 hrs by sulforhodamine B assay; details: values are per cent of control
T47D = test: Growth inhibition of human T47D cells at 10 uM after 48 hrs by sulforhodamine B assay; details: values are per cent of control
SK-MEL-2 = test: Growth inhibition of human SK-MEL-2 cells at 10 uM after 48 hrs by sulforhodamine B assay; details: SK-MEL-2, 48 h, values are per cent of control
A549 = test: Growth inhibition of human A549/ATCC cells at 10 uM after 48 hrs by sulforhodamine B assay; details: A549, 48 h, values are per cent of control
MDA-MB-435 = test: Growth inhibition of human MDA-MB-435 cells at 10 uM after 48 hrs by sulforhodamine B assay; details: MDA-MB-435, 48 h, values are per cent of control
SK-MEL-28 = test: Growth inhibition of human SK-MEL-28 cells at 10 uM after 48 hrs by sulforhodamine B assay; details: SK-MEL-28, 48 h, values are per cent of control
[8] = Growth inhibition of human HCT116 cells at 10 uM after 48 hrs by sulforhodamine B assay; details: HCT-116, 48 h, values are per cent of control
[9] = Growth inhibition of human SW620 cells at 10 uM after 48 hrs by sulforhodamine B assay; details: SW-620, 48 h, values are per cent of control
[10] = Growth inhibition of human RXF393 cells at 10 uM after 48 hrs by sulforhodamine B assay; details: RXF 393, 48 h, values are per cent of control
NCI-H322M = test: Growth inhibition of human NCI-H322M cells at 10 uM after 48 hrs by sulforhodamine B assay; details: values are per cent of control
NCI-H522 = test: Growth inhibition of human NCI-H522 cells at 10 uM after 48 hrs by sulforhodamine B assay; details: NCI-H522, 48 h, values are per cent of control
[11] = Growth inhibition of human LOXIMVI cells at 10 uM after 48 hrs by sulforhodamine B assay; details: LOX IMVI, values are per cent of control
[12] = Growth inhibition of human SF268 cells at 10 uM after 48 hrs by sulforhodamine B assay; details: SF-268, 48 h, values are per cent of control
[13] = Growth inhibition of human TK10 cells at 10 uM after 48 hrs by sulforhodamine B assay; details: TK-10, 48 h, values are per cent of control
[14] = Growth inhibition of human OVCAR4 cells at 10 uM after 48 hrs by sulforhodamine B assay; details: OVCAR-4, 48 h, values are per cent of control
[15] = Growth inhibition of human IGROV1 cells at 10 uM after 48 hrs by sulforhodamine B assay; details: IGROV-1, 48 h, values are per cent of control
[16] = Growth inhibition of human SF539 cells at 10 uM after 48 hrs by sulforhodamine B assay; details: SF-539, 48 h, values are per cent of control
[17] = Growth inhibition of human BT549 cells at 10 uM after 48 hrs by sulforhodamine B assay; details: BT-549, 48 h, values are per cent of control
NCI-H460 = test: Growth inhibition of human NCI-H460 cells at 10 uM after 48 hrs by sulforhodamine B assay; details: NCI-H460, 48 h, values are per cent of control
M14 = test: Growth inhibition of human M14 cells at 10 uM after 48 hrs by sulforhodamine B assay; details: M14, 48 h, values are per cent of control
[18] = Growth inhibition of human SF295 cells at 10 uM after 48 hrs by sulforhodamine B assay; details: SF-295, 48 h, values are per cent of control
[19] = Growth inhibition of human COLO205 cells at 10 uM after 48 hrs by sulforhodamine B assay; details: COLO 205, 48 h, values are per cent of control
SR = test: Growth inhibition of human SR cells at 10 uM after 48 hrs by sulforhodamine B assay; details: values are per cent of control
[20] = Growth inhibition of human SNB19 cells at 10 uM after 48 hrs by sulforhodamine B assay; details: SNB-19, 48 h, values are per cent of control
786-0 = test: Growth inhibition of human 786-0 cells at 10 uM after 48 hrs by sulforhodamine B assay; details: 786-0, 48 h, values are per cent of control
[21] = Growth inhibition of human NCI-ADR-RES cells at 10 uM after 48 hrs by sulforhodamine B assay; details: values are per cent of control
[22] = Growth inhibition of human OVCAR8 cells at 10 uM after 48 hrs by sulforhodamine B assay; details: OVCAR-8, 48 h, values are per cent of control

Row | SMILES | growth, % of control at 10 µM [1] | growth, % of control at 10 µM (SK-MEL-5) | growth, % of control at 10 µM (NCI-H226) | growth, % of control at 10 µM [2] | growth, % of control at 10 µM [3] | growth, % of control at 10 µM (U-251) | growth, % of control at 10 µM [4] | growth, % of control at 10 µM (ACHN) | growth, % of control at 10 µM [5] | growth, % of control at 10 µM [6] | growth, % of control at 10 µM (NCI-H23) | growth, % of control at 10 µM (MDA-MB-468) | growth, % of control at 10 µM [7] | growth, % of control at 10 µM (SN12C) | growth, % of control at 10 µM (T47D) | growth, % of control at 10 µM (SK-MEL-2) | growth, % of control at 10 µM (A549) | growth, % of control at 10 µM (MDA-MB-435) | growth, % of control at 10 µM (SK-MEL-28) | growth, % of control at 10 µM [8] | further results
1 | N#C/C(=C\c1cc2ccccc2s1)c1ccc2c(c1)OCO2 | 24% | 16.6% | 28.7% | 6.4% | 41.2% | 18.4% | 58.5% | 38.8% | 5.1% | 20.4% | 31.1% | 14.1% | -5.4% | 25.3% | 70.4% | 29.2% | 17.2% | -37.2% | 60.6% | 11.6% | growth, % of control at 10 µM [9]: 21%; growth, % of control at 10 µM [10]: -2.6%; growth, % of control at 10 µM (NCI-H322M): 40.9%; growth, % of control at 10 µM (NCI-H522): -20.5%; growth, % of control at 10 µM [11]: 19.9%; growth, % of control at 10 µM [12]: 23.8%; growth, % of control at 10 µM [13]: 42.7%; growth, % of control at 10 µM [14]: 60.2%; growth, % of control at 10 µM [15]: 34.3%; growth, % of control at 10 µM [16]: -10.1%; growth, % of control at 10 µM [17]: 56.4%; growth, % of control at 10 µM (NCI-H460): 9.7%; growth, % of control at 10 µM (M14): 20.6%; growth, % of control at 10 µM [18]: 2.9%; growth, % of control at 10 µM [19]: -33.9%; growth, % of control at 10 µM (SR): 13.5%; growth, % of control at 10 µM [20]: 46.4%; growth, % of control at 10 µM (786-0): 44.7%; growth, % of control at 10 µM [21]: -1.9%; growth, % of control at 10 µM [22]: 14%
2 | COc1ccc(/C=C(\C#N)c2ccc3c(c2)OCO3)cc1 | 37.5% | 16.4% | 71.8% | 49.4% | 24.8% | 16.5% | 43.8% | 45.7% | 28.3% | 17.8% | 43.2% | 1.2% | 27.2% | 37.2% | 35.8% | -17.7% | 32.3% | -29.1% | 40.7% | 17.4% | growth, % of control at 10 µM [9]: 19.6%; growth, % of control at 10 µM [10]: 23.3%; growth, % of control at 10 µM (NCI-H322M): 35.7%; growth, % of control at 10 µM (NCI-H522): -2.4%; growth, % of control at 10 µM [11]: 33.3%; growth, % of control at 10 µM [12]: 38.5%; growth, % of control at 10 µM [13]: 32.2%; growth, % of control at 10 µM [14]: 67.3%; growth, % of control at 10 µM [15]: 46.3%; growth, % of control at 10 µM [16]: -13.8%; growth, % of control at 10 µM [17]: 30.3%; growth, % of control at 10 µM (NCI-H460): 15.5%; growth, % of control at 10 µM (M14): 10.5%; growth, % of control at 10 µM [18]: 11.2%; growth, % of control at 10 µM [19]: 11.9%; growth, % of control at 10 µM (SR): 11.8%; growth, % of control at 10 µM [20]: 46%; growth, % of control at 10 µM (786-0): 50.3%; growth, % of control at 10 µM [21]: 11.6%; growth, % of control at 10 µM [22]: 26.7%

From ChEMBL document CHEMBL3792365, “Dioxol and dihydrodioxin analogs of 2- and 3-phenylacetonitriles as potent anti-cancer agents with nanomolar activity against a variety of human cancer cells” (2016)
